Starred links: 1 amine or outer side, 2 acyl side, 3 side chain; linkers in the order of their positions; H or OH if unused. Positions of bridges follow the written chain, without caps; N, C: chain ends. Non-standard residues stand in square brackets, D forms with d. Residues, ends and D or L forms follow the SMILES beside them. Chains are numbered I, II in the order given. Actinocin(9to1) = Cc1c2oc3c(C)ccc(C(=O)[*:1])c3nc-2c(C(=O)[*:2])c(N)c1=O; NMeV = CN[C@H](C(=O)O)C(C)C; Sar = CNCC(=O)O
Species: Rattus norvegicus
Experiment: DrugMatrix - Regimen: Daily Repeat
Format: toxicity, organism-based, Sprague-Dawley
Design: regimen Daily Repeat, gender Male, age 6-8 weeks
Conditions: in vivo, iv, vehicle 100 % SALINE; for ABSOLUTE BASOPHIL / ABSOLUTE EOSINOPHIL / ABSOLUTE LYMPHOCYTE / ABSOLUTE MONOCYTE / ABSOLUTE SEGMENTED NEUTROPHIL / BASOPHIL / EOSINOPHIL / ERYTHROCYTE COUNT / HEMATOCRIT / HEMOGLOBIN / LEUKOCYTE COUNT / LYMPHOCYTE / MEAN CORPUSCULAR HEMOGLOBIN / MEAN CORPUSCULAR HEMOGLOBIN CONCENTRATION / MEAN CORPUSCULAR VOLUME / MONOCYTE / NEUTROPHIL / NUCLEATED RED BLOOD CELLS / PLATELET COUNT: tissue Blood; for ALANINE AMINOTRANSFERASE / ALBUMIN / ALKALINE PHOSPHATASE / ASPARTATE AMINOTRANSFERASE / BLOOD UREA NITROGEN / CARBON DIOXIDE / CHLORIDE / CHOLESTEROL / CREATINE PHOSPHOKINASE / CREATININE / GLUCOSE / LACTATE DEHYDROGENASE / LIPASE / PHOSPHORUS / POTASSIUM / SODIUM / TOTAL BILIRUBIN / TOTAL PROTEIN / URIC ACID: tissue Plasma
[1] = 0.006 mg/kg, 120 h, dose level Low, time 5 day
[2] = 0.06 mg/kg, 72 h, dose level High, time 3 day
[3] = 0.06 mg/kg, 120 h, dose level High, time 5 day

For `Cc1c2oc3c(C)ccc(C(=O)N[C@@H]4C(=O)N[C@H](C(C)C)C(=O)N5CCC[C@H]5C(=O)N(C)CC(=O)N(C)[C@@H](C(C)C)C(=O)O[C@@H]4C)c3nc-2c(C(=O)N[C@@H]2C(=O)N[C@H](C(C)C)C(=O)N3CCC[C@H]3C(=O)N(C)CC(=O)N(C)[C@@H](C(C)C)C(=O)O[C@@H]2C)c(N)c1=O` [DACTINOMYCIN] (I: T[dV]P[Sar][NMeV] / II: T[dV]P[Sar][NMeV]; ester I:1-I:C, II:1-II:C; linker I:N-II:N via Actinocin(9to1)), the “ABSOLUTE BASOPHIL” value [1] was 0 CELLS/uL, the “ABSOLUTE EOSINOPHIL” value [1] was 221.33 CELLS/uL and the “ABSOLUTE LYMPHOCYTE” value [1] was 12705.67 CELLS/uL. The “ABSOLUTE MONOCYTE” value [1] was 103.33 CELLS/uL, the “ABSOLUTE SEGMENTED NEUTROPHIL” value [1] was 1369.67 CELLS/uL and the BASOPHIL [1] was 0%. The EOSINOPHIL [1] was 1.33%, the “ERYTHROCYTE COUNT” value [1] was 5.39 x10E6/uL and the HEMATOCRIT [1] was 33.7%. The HEMOGLOBIN [1] was 13.67 G/DL, the “LEUKOCYTE COUNT” value [1] was 14.4 x10E3/uL and the LYMPHOCYTE [1] was 88.67%. The “MEAN CORPUSCULAR HEMOGLOBIN” value [1] was 25.37 pg, the “MEAN CORPUSCULAR HEMOGLOBIN CONCENTRATION” value [1] was 40.57 G/DL and the “MEAN CORPUSCULAR VOLUME” value [1] was 62.57 fL. The MONOCYTE [1] was 0.67%, the NEUTROPHIL [1] was 9.33% and the “NUCLEATED RED BLOOD CELLS” value [1] was 0 /100WBC. For the same compound, the “PLATELET COUNT” value [1] was 1209 x10E3/uL, the “ALANINE AMINOTRANSFERASE” value [1] was 51 u/L and the ALBUMIN [1] was 4.1 G/DL. The “ALKALINE PHOSPHATASE” value [1] was 297 u/L, the “ASPARTATE AMINOTRANSFERASE” value [1] was 130.67 u/L and the “BLOOD UREA NITROGEN” value [1] was 15 mg/dL. For the same compound, the “CARBON DIOXIDE” value [1] was 27.33 mmol/L, the CHLORIDE [1] was 102 MEQ/L and the CHOLESTEROL [1] was 77 mg/dL. The “CREATINE PHOSPHOKINASE” value [1] was 1455.33 u/L, the CREATININE [1] was 0.22 mg/dL and the GLUCOSE [1] was 155.33 mg/dL. The “LACTATE DEHYDROGENASE” value [1] was 798.33 u/L, the LIPASE [1] was 10.33 u/L and the PHOSPHORUS [1] was 11.03 mg/dL. For the same compound, the POTASSIUM [1] was 5.31 MEQ/L, the SODIUM [1] was 143.1 MEQ/L and the “TOTAL BILIRUBIN” value [1] was 0.17 mg/dL. For the same compound, the “TOTAL PROTEIN” value [1] was 6.13 G/DL, the “URIC ACID” value [1] was 1.37 mg/dL and the “ABSOLUTE BASOPHIL” value [2] was 0 CELLS/uL. For the same compound, the “ABSOLUTE EOSINOPHIL” value [2] was 0 CELLS/uL, the “ABSOLUTE LYMPHOCYTE” value [2] was 13952.33 CELLS/uL and the “ABSOLUTE MONOCYTE” value [2] was 166 CELLS/uL. For the same compound, the “ABSOLUTE SEGMENTED NEUTROPHIL” value [2] was 748.33 CELLS/uL, the BASOPHIL [2] was 0% and the EOSINOPHIL [2] was 0%. For the same compound, the “ERYTHROCYTE COUNT” value [2] was 5.81 x10E6/uL, the HEMATOCRIT [2] was 35.17% and the HEMOGLOBIN [2] was 13.97 G/DL. For the same compound, the “LEUKOCYTE COUNT” value [2] was 14.87 x10E3/uL, the LYMPHOCYTE [2] was 93.67% and the “MEAN CORPUSCULAR HEMOGLOBIN” value [2] was 24.13 pg. The “MEAN CORPUSCULAR HEMOGLOBIN CONCENTRATION” value [2] was 39.8 G/DL, the “MEAN CORPUSCULAR VOLUME” value [2] was 60.7 fL and the MONOCYTE [2] was 1%. For the same compound, the NEUTROPHIL [2] was 5.33%, the “NUCLEATED RED BLOOD CELLS” value [2] was 0 /100WBC and the “PLATELET COUNT” value [2] was 1121.67 x10E3/uL. The “ALANINE AMINOTRANSFERASE” value [2] was 41.67 u/L, the ALBUMIN [2] was 4.4 G/DL and the “ALKALINE PHOSPHATASE” value [2] was 262.67 u/L. For the same compound, the “ASPARTATE AMINOTRANSFERASE” value [2] was 85.33 u/L, the “BLOOD UREA NITROGEN” value [2] was 15.67 mg/dL and the “CARBON DIOXIDE” value [2] was 26 mmol/L. For the same compound, the CHLORIDE [2] was 99.67 MEQ/L, the CHOLESTEROL [2] was 81.33 mg/dL and the “CREATINE PHOSPHOKINASE” value [2] was 562.67 u/L. For the same compound, the CREATININE [2] was 0.16 mg/dL, the GLUCOSE [2] was 154.33 mg/dL and the “LACTATE DEHYDROGENASE” value [2] was 357.33 u/L. For the same compound, the LIPASE [2] was 10.33 u/L, the PHOSPHORUS [2] was 11.93 mg/dL and the POTASSIUM [2] was 6.38 MEQ/L. For the same compound, the SODIUM [2] was 140.17 MEQ/L, the “TOTAL BILIRUBIN” value [2] was 0.2 mg/dL and the “TOTAL PROTEIN” value [2] was 6.13 G/DL. For the same compound, the “URIC ACID” value [2] was 1.6 mg/dL, the “ABSOLUTE BASOPHIL” value [3] was 0 CELLS/uL and the “ABSOLUTE EOSINOPHIL” value [3] was 0 CELLS/uL. For the same compound, the “ABSOLUTE LYMPHOCYTE” value [3] was 13429.67 CELLS/uL, the “ABSOLUTE MONOCYTE” value [3] was 267.67 CELLS/uL and the “ABSOLUTE SEGMENTED NEUTROPHIL” value [3] was 1069.33 CELLS/uL. For the same compound, the BASOPHIL [3] was 0%, the EOSINOPHIL [3] was 0% and the “ERYTHROCYTE COUNT” value [3] was 5.63 x10E6/uL. The HEMATOCRIT [3] was 35%, the HEMOGLOBIN [3] was 13.77 G/DL and the “LEUKOCYTE COUNT” value [3] was 14.77 x10E3/uL. For the same compound, the LYMPHOCYTE [3] was 90.67%, the “MEAN CORPUSCULAR HEMOGLOBIN” value [3] was 24.5 pg and the “MEAN CORPUSCULAR HEMOGLOBIN CONCENTRATION” value [3] was 39.37 G/DL. The “MEAN CORPUSCULAR VOLUME” value [3] was 62.17 fL, the MONOCYTE [3] was 1.67% and the NEUTROPHIL [3] was 7.67%. The “NUCLEATED RED BLOOD CELLS” value [3] was 0 /100WBC, the “PLATELET COUNT” value [3] was 1163.67 x10E3/uL and the “ALANINE AMINOTRANSFERASE” value [3] was 41 u/L. The ALBUMIN [3] was 4.2 G/DL, the “ALKALINE PHOSPHATASE” value [3] was 279.33 u/L and the “ASPARTATE AMINOTRANSFERASE” value [3] was 79.33 u/L. The “BLOOD UREA NITROGEN” value [3] was 19.33 mg/dL, the “CARBON DIOXIDE” value [3] was 29 mmol/L and the CHLORIDE [3] was 99.67 MEQ/L. For the same compound, the CHOLESTEROL [3] was 62.33 mg/dL, the “CREATINE PHOSPHOKINASE” value [3] was 327.33 u/L and the CREATININE [3] was 0.23 mg/dL. The GLUCOSE [3] was 148.67 mg/dL, the “LACTATE DEHYDROGENASE” value [3] was 429.67 u/L and the LIPASE [3] was 10 u/L. It also gave a PHOSPHORUS [3] of 12.3 mg/dL, a POTASSIUM [3] of 6.67 MEQ/L and an SODIUM [3] of 140.87 MEQ/L. The “TOTAL BILIRUBIN” value [3] was 0.23 mg/dL, the “TOTAL PROTEIN” value [3] was 6.2 G/DL and the “URIC ACID” value [3] was 1.7 mg/dL.

From ChEMBL document CHEMBL3885881, “DrugMatrix”
